Here are results for five compounds from patent US20250339399A1, “SUPRAMOLECULAR SELF-ASSEMBLY SYSTEM” (Beijing Creatron Institute of Pharmaceutical Research Co., …, priority 2022, published 2025).

The conditions of data set [1]: human use, cited from earlier work.
The conditions of data set [2]: cited from earlier work.
The conditions of data set [3]: cited from earlier work. This is another data set of the same source.
Data set [4] is described as follows: Guest molecule concentration after incubation in initial medium without polymer (Comparative Example 1). The note with it: 37° C., 0.05% SDS in pH 6.8 phosphate buffer. It counts as physicochemical. A digest of the protocol: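 Dissolved guest content measured by HPLC of centrifuged supernatants (37° C., 13000 rpm, 5 min) sampled at 0.5 h, 3 h and 6 h. Incubation was polymer-free at 37° C.±0.5° C. in buffers of pH 2.0-7.4; nominal loading was set by maximum clinical dose.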

A short description of data set [5]: Binary supramolecular self-assembly systems of polymer and target: guest concentration over incubation time (Comparative Example 2). The class given is physicochemical. The note with it: for Concentration of guest molecule in solution / Times that of the initial medium: 6 h. How it is done:
Experiments were conducted according to the steps in Comparative Example 1, and quantitative analysis was carried out using the analytical method for each target to investigate the regulation ability […] stacking.

Data set [6] can be described thus: Binary (carrier), ternary and quaternary supramolecular self-assembly systems of polymer, carrier building block and target: guest concentration over incubation time (Examples 1-56). The class given is physicochemical. The conditions noted are these: 6 h. A digest of the protocol: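 Targets were incubated at 37 °C in pH 2.0–7.4 buffers with 0.5% polymer alone or with carrier building blocks, after 0.5 h sonication for ternary systems, and shaken at 200 rpm. Samples at 0.5–6 h were centrifuged and diluted ≥10-fold, and dissolved target was quantified by HPLC; surfactant was added if needed.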

Setting [7] is: quaternary: 0.05% 314 + 0.25% 201.
The mark [8] stands for this setting: quaternary: 0.05% 314 + 0.25% 202.
[9] abbreviates: quaternary: 0.05% 314 + 0.25% 203.
[10] abbreviates: quaternary: 0.05% 314 + 0.25% 204.
Where [11] appears, read: quaternary: 0.05% 314 + 0.25% 205.

Where two headings read alike, the source gives them in different places.

For the compound `C[C@H](CC[C@@H](O[C@@H]1O[C@H](CO[C@@H]2O[C@H](CO)[C@@H](O)[C@H](O)[C@H]2O)[C@@H](O)[C@H](O)[C@H]1O[C@@H]1O[C@H](CO)[C@@H](O)[C@H](O)[C@H]1O)C(C)(C)O)[C@H]1CC[C@@]2(C)[C@@H]3CC=C4[C@@H](CC[C@H](O[C@@H]5O[C@H](CO[C@@H]6O[C@H](CO)[C@@H](O)[C@H](O)[C@H]6O)[C@@H](O)[C@H](O)[C@H]5O)C4(C)C)[C@]3(C)[C@H](O)C[C@]12C` [compound 319, Mogroside V], in data set [1] (bw: body weight), the “Acceptable daily intake (ADI)” value is on record as 0-2.5 mg/kg bw/day.
As for `COc1ccc([C@@H]2CC(=O)c3c(O)cc(O[C@@H]4O[C@H](CO)[C@@H](O)[C@H](O)[C@H]4O[C@@H]4O[C@@H](C)[C@H](O)[C@@H](O)[C@H]4O)cc3O2)cc1O` [compound 318, Neohesperidin], the “Acceptable daily intake (ADI)” value in data set [1] (bw: body weight) is on record as 5 mg/kg bw/day.
With `C=C1C[C@@]23CC[C@H]4[C@@](C)(CCC[C@@]4(C)C(=O)O[C@@H]4O[C@H](CO)[C@@H](O)[C@H](O[C@@H]5O[C@H](CO)[C@@H](O)[C@H](O)[C@H]5O)[C@H]4O[C@@H]4O[C@H](CO)[C@@H](O)[C@H](O)[C@H]4O)[C@@H]2CC[C@]1(O[C@@H]1O[C@H](CO)[C@@H](O)[C@H](O[C@@H]2O[C@H](CO)[C@@H](O)[C@H](O)[C@H]2O)[C@H]1OC1O[C@H](CO)[C@@H](O)[C@H](O)[C@H]1O)C3` (stereo partly shown) [compound 321, Rebaudioside M], the “Acceptable daily intake (ADI)” value in data set [1] (bw: body weight) was 4 mg/kg bw/day.
In the case of `C[C@@H]1O[C@@H](O[C@H]2[C@H](Oc3cc(O)c(C(=O)CCc4ccc(O)cc4)c(O)c3)O[C@H](CO)[C@@H](O)[C@@H]2O)[C@H](O)[C@H](O)[C@H]1O` [compound 312, Naringin dihydrochalcone], in data set [1], the “Acceptable daily intake (ADI)” value was 41 mg/person/ day mg/person/day.
`C=C(C)[C@@H]1CCC(C)=C[C@H]1c1c(O)cc(CCCCC)cc1O` [Cannabidiol]: the “LogD7.4 or Log P” value in data set [2] is listed as 6.32. Besides, the “Concentration in the system” value is 25500 µg/mL in data set [3] (200 mM methyl-beta-cyclodextrin, literature) and “lower than 1 mg/mL” in data set [3] (about 5-10 mM methyl-beta-cyclodextrin, literature curve). In addition, the “Best result reported by the literature (concentration)” value in data set [3] (International Journal of Pharmaceutics 589 (2020) 119812) was 150 µg/mL. Also, the “Concentration of guest molecule measured after different incubated time” value in data set [4] (0.5 h) came to 11.4 µg/mL; in data set [4] (3 h) it was 11.8 µg/mL; in data set [4] (6 h) it was 8.5 µg/mL. In addition, the “Concentration of the target in the solution measured after different incubation time” value (“Concentration … after different incubation time” below) stood at 282.6 µg/mL in data set [5] (binary system with 0.5% polymer 101, incubation 0.5 h); 293.7 µg/mL in data set [5] (binary system with 0.5% polymer 101, incubation 3 h); 342.5 µg/mL in data set [5] (binary system with 0.5% polymer 101, incubation 6 h); 307.3 µg/mL in data set [5] (binary system with 0.5% polymer 102, incubation 0.5 h); 323.6 µg/mL in data set [5] (binary system with 0.5% polymer 102, incubation 3 h); 333.1 µg/mL in data set [5] (binary system with 0.5% polymer 102, incubation 6 h). For the same compound, the “Concentration … after different incubation time” value in data set [5] (binary system with 0.5% polymer 103, incubation 0.5 h) is 54.8 µg/mL; in data set [5] (binary system with 0.5% polymer 103, incubation 3 h) it was 55.1 µg/mL; in data set [5] (binary system with 0.5% polymer 103, incubation 6 h) it was 55.7 µg/mL; in data set [5] (binary system with 0.5% polymer 106, incubation 0.5 h), 148.1 µg/mL; in data set [5] (binary system with 0.5% polymer 106, incubation 3 h), 149.4 µg/mL; in data set [5] (binary system with 0.5% polymer 106, incubation 6 h), 155.7 µg/mL. Moreover, the “Concentration … after different incubation time” value in data set [5] (binary system with 0.5% polymer 107, incubation 0.5 h) amounted to 109.6 µg/mL; in data set [5] (binary system with 0.5% polymer 107, incubation 3 h), 97.2 µg/mL; in data set [5] (binary system with 0.5% polymer 107, incubation 6 h) it was 95.7 µg/mL; in data set [5] (binary system with 0.5% polymer 110, incubation 0.5 h) it was 168.9 µg/mL; in data set [5] (binary system with 0.5% polymer 110, incubation 3 h), 8.6 µg/mL; in data set [5] (binary system with 0.5% polymer 110, incubation 6 h) it was 7.3 µg/mL. In addition, the “Concentration of guest molecule in solution” value in data set [5] (binary: 0.25% 101) stood at 342.5 µg/mL; in data set [5] (binary: 0.25% 103E3) it was 55.7 µg/mL; in data set [5] (binary: 0.25% 106 (K30)), 155.7 µg/mL; in data set [6] (setting [7]) it was 732.2 µg/mL; in data set [6] (setting [8]) it was 399.4 µg/mL; in data set [6] (setting [9]) it was 648.3 µg/mL. For the same compound, the “Concentration of guest molecule in solution” value was 725.0 µg/mL in data set [6] (setting [10]), 581.7 µg/mL in data set [6] (setting [11]), 580.1 µg/mL in data set [6] (ternary: 102M + 0.1% 310) and 481.2 µg/mL in data set [6] (ternary: 102M + 0.25% 310). In addition, the “Times that of the initial medium” value in data set [5] (binary: 0.25% 101) stood at 40 times; in data set [5] (binary: 0.25% 106 (K30)), 18 times; in data set [6] (setting [7]) it was 86 times; in data set [6] (setting [8]) it was 47 times; in data set [6] (setting [9]) it was 76 times; in data set [6] (setting [10]), 85 times. Besides, the “Times that of the initial medium” value in data set [6] (setting [11]) amounted to 68 times.
